Data reported in patent US20260265265A1, “NOVEL BENZIMIDAZOLONE DERIVATIVE COMPOUND AS AUTOTAXIN INHIBITOR” (LG CHEM, LTD., priority 2023, published 2026).

Biological target: T1, Recombinant Human ENPP-2/Autotaxin (Homo sapiens, UniProt Q13822)
T1 construct: purchased R&D systems 5255-EN
Assay: LysoPLD activity measurement (autotaxin enzyme inhibition, choline release, TOOS reagent)
Type: biochemical
Conditions: LysoPLD inhibitory activity; substrate 14:0 LysoPC; absorbance at 555 nm
Procedure: Such a measurement method is a method of measuring the amount of choline, which is a reaction product in an autotaxin enzyme reaction, using a TOOS reagent. Depending on the activity of the autotaxin inhibitor, the amount of choline produced as a reaction product varies, which affects the final absorbance.
After 30 min, 14:0 LysoPC of the substrate diluted to a concentration of 300 μM with the enzyme reaction buffer solution was dispensed into each well by 50 μL and allowed to stand at 37° C. for 90 minutes. At this time, negative control wells were dispensed with 1% DMSO, substrate, and autotaxin instead of the compound, and positive control wells were dispensed with 1% DMSO and substrate.

Compound: O=C(O)c1cccc(Cn2c(=O)n(-c3ccc(OCC4CCC4)cc3)c3cc(Cl)ccc32)c1 [Example 27, 3-((5-chloro-3-(4-(cyclobutylmethoxy)phenyl)-2-oxo-2,3-dihydro-1H-benzo[d]imidazol-1-yl)methyl)benzoic acid]
- IC50: 100 to 1000 nM

Compound: O=C(O)c1cccc(Cn2c(=O)n(-c3ccc(N4CCCCC4=O)cc3)c3cc(Cl)ccc32)c1 [Example 28, 3-((5-chloro-2-oxo-3-(4-(2-oxopiperidin-1-yl)phenyl)-2,3-dihydro-1H-benzo[d]imidazol-1-yl)methyl)benzoic acid]
- IC50: 10 to 100 nM

Compound: O=C(O)c1cccc(Cn2c(=O)n(-c3ccc(N4CCCC4)cc3)c3cc(Cl)ccc32)c1 [Example 29, 3-((5-chloro-2-oxo-3-(4-(pyrrolidin-1-yl)phenyl)-2,3-dihydro-1H-benzo[d]imidazol-1-yl)methyl)benzoic acid]
- IC50: 10 to 100 nM

Compound: O=C(O)c1cccc(Cn2c(=O)n(-c3ccc(OCC4CCC4)c(F)c3)c3cc(Cl)ccc32)c1 [Example 30, 3-((5-chloro-3-(4-(cyclobutylmethoxy)-3-fluorophenyl)-2-oxo-2,3-dihydro-1H-benzo[d]imidazol-1-yl)methyl)benzoic acid]
- IC50: 100 to 1000 nM

Compound: CCCc1ccc(-n2c(=O)n(C3(c4cccc(C(=O)O)c4)CC3)c3ccc(Cl)cc32)cc1 [Example 31, 3-(1-(5-chloro-2-oxo-3-(4-propylphenyl)-2,3-dihydro-1H-benzo[d]imidazol-1-yl)cyclopropyl)benzoic acid]
- IC50: 10 to 100 nM

Compound: O=C(O)c1ccc(F)c(Cn2c(=O)n(-c3ccccc3)c3cc(Cl)ccc32)c1 [Example 32, 3-((5-chloro-2-oxo-3-phenyl-2,3-dihydro-1H-benzo[d]imidazol-1-yl)methyl)-4-fluorobenzoic acid]
- IC50: 100 to 1000 nM

Compound: O=C(O)c1cccc(Cn2c(=O)n(-c3ccccc3)c3cc(Cl)ccc32)c1F [Example 33, 3-((5-chloro-2-oxo-3-phenyl-2,3-dihydro-1H-benzo[d]imidazol-1-yl)methyl)-2-fluorobenzoic acid]
- IC50: 100 to 1000 nM

Compound: O=C(O)c1cc(F)cc(Cn2c(=O)n(-c3ccccc3)c3cc(Cl)ccc32)c1 [Example 34, 3-((5-chloro-2-oxo-3-phenyl-2,3-dihydro-1H-benzo[d]imidazol-1-yl)methyl)-5-fluorobenzoic acid]
- IC50: 100 to 1000 nM

Compound: O=C(O)c1cc(Cn2c(=O)n(-c3ccccc3)c3cc(Cl)ccc32)ccc1F [Example 35, 5-((5-chloro-2-oxo-3-phenyl-2,3-dihydro-1H-benzo[d]imidazol-1-yl)methyl)-2-fluorobenzoic acid]
- IC50: 100 to 1000 nM

Compound: CN(C)C(=O)c1ccc(-n2c(=O)n(Cc3cccc(C(=O)O)c3)c3ccc(Cl)cc32)cc1F [Example 36, 3-((5-chloro-3-(4-(dimethylcarbamoyl)-3-fluorophenyl)-2-oxo-2,3-dihydro-1H-benzo[d]imidazol-1-yl)methyl)benzoic acid]
- IC50: 10 to 100 nM

Compound: CN(C)c1ccc(-n2c(=O)n(Cc3cccc(C(=O)O)c3)c3cc(Cl)cc(F)c32)cc1 [Example 37, 3-((6-chloro-3-(4-(dimethylamino)phenyl)-4-fluoro-2-oxo-2,3-dihydro-1H-benzo[d]imidazol-1-yl)methyl)benzoic acid]
- IC50: 100 to 1000 nM

Compound: CN(C)C(=O)c1ccc(-n2c(=O)n(Cc3cccc(C(=O)O)c3F)c3ccc(Cl)cc32)cc1 [Example 38, 3-((5-chloro-3-(4-(dimethylcarbamoyl)phenyl)-2-oxo-2,3-dihydro-1H-benzo[d]imidazol-1-yl)methyl)-2-fluorobenzoic acid]
- IC50: < 10 nM

Compound: CN(C)c1ccc(-n2c(=O)n(Cc3cccc(C(=O)O)c3F)c3ccc(Cl)cc32)cc1 [Example 39, 3-((5-chloro-3-(4-(dimethylamino)phenyl)-2-oxo-2,3-dihydro-1H-benzo[d]imidazol-1-yl)methyl)-2-fluorobenzoic acid]
- IC50: 10 to 100 nM

Compound: CC(C)Oc1ccc(-n2c(=O)n(Cc3cccc(C(=O)O)c3F)c3ccc(Cl)cc32)cc1 [Example 40, 3-((5-chloro-3-(4-isopropoxyphenyl)-2-oxo-2,3-dihydro-1H-benzo[d]imidazol-1-yl)methyl)-2-fluorobenzoic acid]
- IC50: 10 to 100 nM

Compound: CS(=O)(=O)Nc1ccc(-n2c(=O)n(Cc3cccc(C(=O)O)c3F)c3ccc(Cl)cc32)cc1 [Example 41, 3-((5-chloro-3-(4-(methylsulfonamido)phenyl)-2-oxo-2,3-dihydro-1H-benzo[d]imidazol-1-yl)methyl)-2-fluorobenzoic acid]
- IC50: 10 to 100 nM

Compound: O=C(O)c1cccc(Cn2c(=O)n(-c3ccc(OCC4CC4)cc3)c3cc(Cl)ccc32)c1 [Example 42, 3-((5-chloro-3-(4-(cyclopropylmethoxy)phenyl)-2-oxo-2,3-dihydro-1H-benzo[d]imidazol-1-yl)methyl)benzoic acid]
- IC50: 100 to 1000 nM

Compound: O=C(O)c1cccc(Cn2c(=O)n(-c3ccc(C(=O)N4CCCCC4)cc3)c3cc(Cl)ccc32)c1 [Example 43, 3-((5-chloro-2-oxo-3-(4-(piperidine-1-carbonyl)phenyl)-2,3-dihydro-1H-benzo[d]imidazol-1-yl)methyl)benzoic acid]
- IC50: < 10 nM

Compound: O=C(O)c1cccc(Cn2c(=O)n(-c3ccc(C(=O)N4CCOCC4)cc3)c3cc(Cl)ccc32)c1 [Example 44, 3-((5-chloro-3-(4-(morpholine-4-carbonyl)phenyl)-2-oxo-2,3-dihydro-1H-benzo[d]imidazol-1-yl)methyl)benzoic acid]
- IC50: 10 to 100 nM

Compound: O=C(O)c1cccc(Cn2c(=O)n(-c3ccc(C(=O)N4CCCC4)cc3)c3cc(Cl)ccc32)c1 [Example 45, 3-((5-chloro-2-oxo-3-(4-(pyrrolidine-1-carbonyl)phenyl)-2,3-dihydro-1H-benzo[d]imidazol-1-yl)methyl)benzoic acid]
- IC50: < 10 nM

Compound: O=C(O)c1cccc(Cn2c(=O)n(-c3ccc(C(=O)O)cc3F)c3cc(Cl)ccc32)c1 [Example 46, 4-(3-(3-carboxybenzyl)-6-chloro-2-oxo-2,3-dihydro-1H-benzo[d]imidazol-1-yl)-3-fluorobenzoic acid]
- IC50: 100 to 1000 nM

Compound: O=C(O)c1cccc(Cn2c(=O)n(-c3ccc(N4CCOCC4)cc3)c3cc(Cl)ccc32)c1 [Example 47, 3-((5-chloro-3-(4-morpholinophenyl)-2-oxo-2,3-dihydro-1H-benzo[d]imidazol-1-yl)methyl)benzoic acid]
- IC50: 10 to 100 nM

Compound: O=C(O)c1cc(Cn2c(=O)n(-c3ccc(N4CCOCC4)cc3)c3c(F)c(Cl)ccc32)ccc1F [Example 48, 5-((5-chloro-4-fluoro-3-(4-morpholinophenyl)-2-oxo-2,3-dihydro-1H-benzo[d]imidazol-1-yl)methyl)-2-fluorobenzoic acid]
- IC50: 10 to 100 nM

Compound: O=C(O)c1cc(F)cc(Cn2c(=O)n(-c3ccc(N4CCOCC4)cc3)c3c(F)c(Cl)ccc32)c1 [Example 49, 3-((5-chloro-4-fluoro-3-(4-morpholinophenyl)-2-oxo-2,3-dihydro-1H-benzo[d]imidazol-1-yl)methyl)-5-fluorobenzoic acid]
- IC50: 10 to 100 nM

Compound: O=C(O)c1ccc(F)c(Cn2c(=O)n(-c3ccc(N4CCOCC4)cc3)c3c(F)c(Cl)ccc32)c1 [Example 50, 3-((5-chloro-4-fluoro-3-(4-morpholinophenyl)-2-oxo-2,3-dihydro-1H-benzo[d]imidazol-1-yl)methyl)-4-fluorobenzoic acid]
- IC50: 10 to 100 nM

Compound: O=C(O)c1cccc(Cn2c(=O)n(-c3ccc(N4CCOCC4)cc3)c3c(F)c(Cl)ccc32)c1F [Example 51, 3-((5-chloro-4-fluoro-3-(4-morpholinophenyl)-2-oxo-2,3-dihydro-1H-benzo[d]imidazol-1-yl)methyl)-2-fluorobenzoic acid]
- IC50: < 10 nM

Compound: O=C(O)c1cccc(Cn2c(=O)n(-c3ccc(N4CCOCC4)cc3)c3c(F)c(Cl)ccc32)n1 [Example 52, 6-((5-chloro-4-fluoro-3-(4-morpholinophenyl)-2-oxo-2,3-dihydro-1H-benzo[d]imidazol-1-yl)methyl)picolinic acid]
- IC50: 10 to 100 nM

Compound: O=C(O)c1cccc(Cn2c(=O)n(-c3ccc(N4CC(O)C4)cc3)c3c(F)c(Cl)ccc32)c1 [Example 53, 3-((5-chloro-4-fluoro-3-(4-(3-hydroxyazetidin-1-yl)phenyl)-2-oxo-2,3-dihydro-1H-benzo[d]imidazol-1-yl)methyl)benzoic acid]
- IC50: 10 to 100 nM

Compound: CN(C)C(=O)c1ccc(-n2c(=O)n(Cc3cccc(C(=O)O)c3)c3c(F)cc(Cl)cc32)cc1 [Example 54, 3-((5-chloro-3-(4-(dimethylcarbamoyl)phenyl)-7-fluoro-2-oxo-2,3-dihydro-1H-benzo[d]imidazol-1-yl)methyl)benzoic acid]
- IC50: < 10 nM

Compound: CSc1ccc(-n2c(=O)n(Cc3cccc(C(=O)O)c3F)c3ccc(Cl)cc32)cc1 [Example 55, 3-((5-chloro-3-(4-(methylthio)phenyl)-2-oxo-2,3-dihydro-1H-benzo[d]imidazol-1-yl)methyl)-2-fluorobenzoic acid]
- IC50: 10 to 100 nM

Compound: O=C(O)c1cccc(Cn2c(=O)n(-c3ccc(C(=O)N4CCCC4)cc3)c3cc(Cl)ccc32)c1F [Example 56, 3-((5-chloro-2-oxo-3-(4-(pyrrolidine-1-carbonyl)phenyl)-2,3-dihydro-1H-benzo[d]imidazol-1-yl)methyl)-2-fluorobenzoic acid]
- IC50: < 10 nM

Compound: O=C(O)c1cccc(Cn2c(=O)n(-c3ccc(C(=O)N4CCCCC4)cc3)c3cc(Cl)ccc32)c1F [Example 57, 3-((5-chloro-2-oxo-3-(4-(piperidine-1-carbonyl)phenyl)-2,3-dihydro-1H-benzo[d]imidazol-1-yl)methyl)-2-fluorobenzoic acid]
- IC50: < 10 nM

Compound: COC1CCN(C(=O)c2ccc(-n3c(=O)n(Cc4cccc(C(=O)O)c4)c4ccc(Cl)cc43)cc2)C1 (centres unmarked) [Example 59, 3-((5-chloro-3-(4-(3-methoxypyrrolidine-1-carbonyl)phenyl)-2-oxo-2,3-dihydro-1H-benzo[d]imidazol-1-yl)methyl)benzoic acid]
- IC50: 10 to 100 nM
